Measured values reported in BindingDB's records for doi:10.1016/j.ejmech.2021.113556 (Zhejiang University, 2021).

How the values were obtained:
[1] = target: Proteasome subunit beta type-6 (Homo sapiens) (UniProt P28072); assay: Inhibition of caspase-like activity of human proteasome beta-1c subunit using SUC-LLE-AMC as flurogenic substrate preincubated for 15 mins followed by substrate addition and measured after 1 hr by fluorescence assay
[2] = target: Proteasome subunit beta type-7 (Homo sapiens) (UniProt Q99436); assay: Inhibition of human trypsin-like activity of 20s proteasome beta 2c subunit using SUC-KQL-AMC as flurogenic substrate preincubated for 15 mins followed by substrate addition and measured after 1 hr by fluorescence assay
Sequence of Proteasome subunit beta type-7 (Homo sapiens) (Q99436 whole entry, looked up): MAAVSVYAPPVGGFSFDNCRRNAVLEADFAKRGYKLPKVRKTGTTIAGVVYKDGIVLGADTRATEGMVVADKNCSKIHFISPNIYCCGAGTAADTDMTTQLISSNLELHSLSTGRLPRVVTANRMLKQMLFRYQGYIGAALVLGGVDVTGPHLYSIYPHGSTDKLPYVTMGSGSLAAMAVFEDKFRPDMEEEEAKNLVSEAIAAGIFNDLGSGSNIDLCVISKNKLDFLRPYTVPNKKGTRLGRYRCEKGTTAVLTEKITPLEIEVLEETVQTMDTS

Sequence of Proteasome subunit beta type-6 (Homo sapiens) (P28072 whole entry, looked up): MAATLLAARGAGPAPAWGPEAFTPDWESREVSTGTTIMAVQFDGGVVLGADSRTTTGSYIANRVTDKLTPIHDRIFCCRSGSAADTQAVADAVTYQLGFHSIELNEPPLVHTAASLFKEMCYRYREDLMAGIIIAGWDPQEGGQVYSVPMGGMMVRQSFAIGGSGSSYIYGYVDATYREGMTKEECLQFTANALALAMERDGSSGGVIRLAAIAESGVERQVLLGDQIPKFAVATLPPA

Q: What does the source list for `COc1ccc(C[C@H](NC(=O)[C@@H](C)NC(=O)N2CCC(OC)CC2)C(=O)N[C@@H](Cc2ccccc2)C(=O)[C@@]2(C)CO2)cc1`?
A: IC50 [1]: > 10 µM; IC50 [2]: > 10 µM

Q: Which results are given for `COc1ccc(C[C@H](NC(=O)[C@@H](C)NC(=O)N2CC[C@H](OC)C2)C(=O)N[C@@H](Cc2ccccc2)C(=O)[C@@]2(C)CO2)cc1`?
A: IC50 [1]: > 10 µM; IC50 [2]: > 10 µM

Q: For `C[C@H](NC(=O)N1CCC(NC(=O)c2nccs2)CC1)C(=O)N[C@@H](Cc1c[nH]c2ccccc12)C(=O)N[C@@H](Cc1ccccc1)C(=O)[C@@]1(C)CO1`, which IC50 [1] is on record?
A: 4.36 µM

Q: What about the IC50 [2] of the same compound?
A: > 10 µM

Q: Which IC50 [1] does the source give for `COc1ccc(C[C@H](NC(=O)[C@@H](C)NC(=O)N2CCC[C@@H](OC)C2)C(=O)N[C@@H](Cc2ccccc2)C(=O)[C@@]2(C)CO2)cc1` here?
A: > 10 µM

Q: And the IC50 [2]?
A: > 10 µM
